Our source for the EPSA values is US20260022143A1, “Cyclic Peptide Inhibitors of IL-23” (JANSSEN PHARMACEUTICA NV, priority 2022, published 2026).

Where a name gives a salt, the structure may show the parent alone. Starred links: 1 amine or outer side, 2 acyl side, 3 side chain; linkers in the order of their positions; H or OH if unused. Positions of bridges follow the written chain, without caps; N, C: chain ends. Non-standard residues stand in square brackets, D forms with d. Residues, ends and D or L forms follow the SMILES beside them. Groups on a side chain read outwards from the residue. *: point of attachment. Me3N+(CH2)2O(CH2)2O(CH2)2CO = C[N+](C)(C)CCOCCOCCC(=O)*; Ala(1-Me-3-pyridinium) = C[n+]1cccc(C[C@H](N)C(=O)O)c1; CH2CH2OCH2CH2OCH2CH2NMe3+ = C[N+](C)(C)CCOCCOCC*; Trp(7-Me) = Cc1cccc2c(C[C@H](N)C(=O)O)c[nH]c12; d(hLys(Me3)) = C[N+](C)(C)CCCCC[C@@H](N)C(=O)O; Hexanoyl(6-NMe3+) = C[N+](C)(C)CCCCCC(=O)*; Dab(NMeAc) = CC(=O)N(C)CC[C@H](N)C(=O)O; Pro(4,4-F2) = O=C(O)[C@@H]1CC(F)(F)CN1; γGlu = O=C(O)[C@H](CCC(=O)[*:2])N[*:1]; 2Nal = N[C@@H](Cc1ccc2ccccc2c1)C(=O)O; AEF = NCCOc1ccc(C[C@H](N)C(=O)O)cc1; 3Pal = N[C@@H](Cc1cccnc1)C(=O)O; Myristoyl = CCCCCCCCCCCCCC(=O)*; Lys(Me) = CNCCCC[C@H](N)C(=O)O; NMeK = CN[C@@H](CCCCN)C(=O)O; Pen = CC(C)(S)[C@H](N)C(=O)O; Thp = NC1(C(=O)O)CCOCC1; X3 = C[N+](C)(C)CCCCC*; AEEA = NCCOCCOCC(=O)O; Me2NCH2CH2 = CN(C)CC*; Tfa = O=C(C(F)(F)F)*; Sar = CNCC(=O)O

A short description of this data set: Exposed Polar Surface Area (EPSA). It counts as physicochemical. Particulars: SFC on Chirex 3014 column; sample 1 mM DMSO stock; read-out: EPSA. The text has this: Exposed Polar Surface Area (EPSA) is an experimental descriptor of molecular polarity obtained from chromatographic retention in supercritical fluid chromatography (SFC).
The stationary phase (Chirex 3014(S)-valine and (R)-1-(alpha-naphthyl) ethylamine) was selected for its balance of lipophilic and polar attributes and its capacity to separate compounds with wide polarity differences. The mobile phase consists of methanol (+Ammonium formate) and CO2. Polar compounds are retained stronger under these conditions and a low-slope gradient of methanol achieves elution based on increasing polarity of the mobile phase. Results are normalized using calibration standards generating a linear relationship between retention times and EPSA values. The unit of EPSA is Å^2.
Along with the measurement of compounds of interest, a series of 8 calibration standards (see Materials) are analyzed generating a linear relationship between retention times and EPSA value. The 8 compounds used as calibration standard have their own EPSA value defined by G. Goetz based on the comparison with TPSA (see G. Goetz, L. Philippe and M. Shapiro, “EPSA: A novel supercritical fluid chromatography technique enabling the design of permeable cyclic peptides,” ACS Med. Chem. Lett., vol. 5, pp. 1167-1172, 2014 for more information). The slope from the linear relationship between EPSA values of these eight compounds and their retention times is used to determine the EPSA value of each compound of interest that's measured under the same condition using the equation as below: […]
The mixture of calibrations standard is reinjected every 20 compounds to validate the stability of the retention time.
The mobile phase modifier consists of ammonium formate LC_MS grade (>99%) (CAS number 540-69-2) diluted to 20 mM in HPLC grade Methanol (MeOH, CAS number 67-56-1) and liquid C02 SFC grade (CAS number 124-38-9).
Antipyrine (CAS number: 60-80-0) Chlorpromazine hydrochloride (CAS number: 69-09-0), desipramine hydrochloride (CAS number: […]), pindolol (CAS Number: 13523-86-9), diclofenac (CAS number: 15307-79-6)), m-nitro benzoic acid (CAS number: 121-92-6), bumetanide (CAS number: 28395-03-1), furosemide (CAS number: 54-31-9) were purchased from Sigma Aldrich (Steihneim, Germany).
All analyses were performed on a ultra performance convergence chromatography (UPC™) apparatus (Waters, Milford, MA, USA) equipped with a sample manager, a binary solvent delivery pump (BSM), a column manager, a convergence manager (automated back pressure regulator), a photo diode array detector (DAD) with a high pressure flow cell, and a mass detector simple quadrupole QDa. After the UV detector, the effluent of the SFC was mixed with an eluent consist of mixture MeOH/water (+0.3% Ammonia) 95/5 delivered by a make up pump with a flow rate of 0.4 mL/min and then split to the QDa using a splitter. The instrument was controlled, and data were processed with Masslynx 4.1.
The Analyses were performed using a 4.6×50 mm Chirex 3014(S)-valine and (R)-1-(alpha- naphthyl) ethylamine column (Phenomenex, Le Pecq, France) with 5 um particle and 100A pore size. The flow rate was 4 mL/min with the outlet pressure set to 14 MPa. The injection volume was 2 μL. the mobile phase composition was varied from 5% to 60% modifier at 20%/ min in a linear gradient, holding at 60% for 1.45 min and reverting to the original 5% until the end of the run. Data are acquired during 5 min. An equilibration time of 1 min is applied between 2 injections resulting in an injection every 6 min. each sample is analyzed in duplicate, resulting in a sample to sample turnaround time of 12 min.
The column temperature was set to 35° C. The mass detector was used in full scan from 100 to 800 for small molecules and from 500 to 1200 for peptides.
Each sample is delivered by compound logistics from DMSO stock solution without dilution. The concentration is 1 mM and the volume is 60 μL.
As to `CC(=O)NCCCC[C@@H]1NC(=O)[C@H](Cc2c[nH]c3c(C)cccc23)NC(=O)[C@H]([C@@H](C)O)NC(=O)[C@H](CC(N)=O)NC(=O)[C@@H](NC(=O)CCCCC[N+](C)(C)C)C(C)(C)SSC(C)(C)[C@@H](C(=O)N[C@@H](Cc2ccc(OCCN)cc2)C(=O)N[C@@H](Cc2ccc3ccccc3c2)C(=O)NC2(C(=O)N[C@@H](CCC(=O)O)C(=O)N[C@@H](CC(N)=O)C(=O)N[C@@H](Cc3cccnc3)C(=O)N(C)CC(N)=O)CCOCC2)NC1=O` [compound 81] ({Hexanoyl(6-NMe3+)}-[Pen]NT[Trp(7-Me)]K(Ac)[Pen][AEF][2Nal][Thp]EN[3Pal][Sar]-NH2; disulfide 1-6 (inferred)), the EPSA is 173 A^2. Regarding `CC(=O)NCCCC[C@H](NC(=O)C1(NC(=O)[C@H](Cc2ccc3ccccc3c2)NC(=O)[C@H](Cc2ccc(OCCN)cc2)NC(=O)[C@H]2NC(=O)[C@H](CCN(C)C(C)=O)NC(=O)[C@H](Cc3c[nH]c4c(C)cccc34)NC(=O)[C@H]([C@@H](C)O)NC(=O)[C@H](CC(N)=O)NC(=O)[C@@H](NC(=O)C(F)(F)F)C(C)(C)SSC2(C)C)CCOCC1)C(=O)N[C@@H](CC(N)=O)C(=O)N[C@@H](Cc1ccc[n+](C)c1)C(=O)N(C)CC(N)=O` [compound 51] (Tfa-[Pen]NT[Trp(7-Me)][Dab(NMeAc)][Pen][AEF][2Nal][Thp]K(Ac)N[Ala(1-Me-3-pyridinium)][Sar]-NH2; disulfide 1-6), the EPSA came out at 156 A^2. Then `CC(=O)NCCCC[C@@H]1NC(=O)[C@H](Cc2c[nH]c3c(C)cccc23)NC(=O)[C@H]([C@@H](C)O)NC(=O)[C@H](CC(N)=O)NC(=O)[C@@H](NC(=O)C(F)(F)F)C(C)(C)SSC(C)(C)[C@@H](C(=O)N[C@@H](Cc2ccc(OCCN)cc2)C(=O)N[C@@H](Cc2ccc3ccccc3c2)C(=O)NC2(C(=O)N[C@@H](CCCCNC(C)=O)C(=O)N[C@@H](CC(N)=O)C(=O)N[C@@H](Cc3cccnc3)C(=O)N3CC(F)(F)C[C@H]3C(=O)N(C)C)CCOCC2)NC1=O` [compound 73] (Tfa-[Pen]NT[Trp(7-Me)]K(Ac)[Pen][AEF][2Nal][Thp]K(Ac)N[3Pal][Pro(4,4-F2)]-NMe2; disulfide 1-6 (inferred)), with 155 A^2. Next, `CCCCCCCCCCCCCC(=O)N[C@@H](CCC(=O)NCCOCCOCC(=O)NCCOCCOCC(=O)NCCCC[C@H](NC(=O)C1(NC(=O)[C@H](Cc2ccc3ccccc3c2)NC(=O)[C@H](Cc2ccc(OCCCCC[N+](C)(C)C)cc2)NC(=O)[C@H]2NC(=O)[C@H](CCCCN(C)C(C)=O)NC(=O)[C@H](Cc3c[nH]c4c(C)cccc34)NC(=O)[C@H]([C@@H](C)O)NC(=O)[C@H](CC(=O)N(C)C)NC(=O)[C@@H](NC(=O)[C@@H](CCCCC[N+](C)(C)C)NC(=O)COCCOCCNC(=O)COCCOCCNC(=O)CC[C@H](NC(=O)CCCCCCCCCCCCC)C(=O)O)C(C)(C)SSC2(C)C)CCOCC1)C(=O)N[C@@H](CC(N)=O)C(=O)N[C@@H](Cc1cccnc1)C(=O)N(C)CC(=O)N(C)C)C(=O)O` [compound 376, C14gEPEG2PEG2CO-hk(Me)3-Pen(3)-N(N(Me)2)-T-7MeW-K(NMeAc)-Pen(3)-TMAPF-2Nal-THP-K(PEG2PEG2gEC14)-N-3Pya-Sar-CON(Me)2] ({Myristoyl-γGlu-AEEA-AEEA}-[d(hLys(Me3))][Pen]D(NMe2)T[Trp(7-Me)][Lys(Me)](Ac)[Pen]Y(X3)[2Nal][Thp]K([AEEA-AEEA-γGlu-Myristoyl])N[3Pal][Sar]-NMe2; disulfide 2-7): 176 A^2; `CC(=O)N(C)CCCC[C@@H]1NC(=O)[C@H](Cc2c[nH]c3c(C)cccc23)NC(=O)[C@H]([C@@H](C)O)NC(=O)[C@H](CC(=O)N(C)C)NC(=O)[C@@H](NC(=O)CCOCCOCC[N+](C)(C)C)C(C)(C)SSC(C)(C)[C@@H](C(=O)N[C@@H](Cc2ccc(OCCN(C)C)cc2)C(=O)N[C@@H](Cc2ccc3ccccc3c2)C(=O)NC2(C(=O)N[C@@H](CCCCN(C)C(C)=O)C(=O)N[C@@H](CC(N)=O)C(=O)N[C@@H](Cc3cccnc3)C(=O)N(C)CC(=O)N(C)C)CCOCC2)NC1=O` [compound 321, cPEG3aCO-Pen(3)-N(N(Me)2)-T-7MeW-K(NMeAc)-Pen(3)-AEF(N(Me)2)-2Nal-THP-K(NMeAc)-N-3Pya-Sar-CON(Me)2] ({Me3N+(CH2)2O(CH2)2O(CH2)2CO}-[Pen]D(NMe2)T[Trp(7-Me)][Lys(Me)](Ac)[Pen]Y(Me2NCH2CH2)[2Nal][Thp][Lys(Me)](Ac)N[3Pal][Sar]-NMe2; disulfide 1-6): 153 A^2; `CC(=O)N[C@@H]1C(=O)N[C@@H](CC(=O)N(C)C)C(=O)N[C@@H]([C@@H](C)O)C(=O)N[C@@H](Cc2c[nH]c3c(C)cccc23)C(=O)N[C@@H](CCCCN(C)C(=O)CCOCCOCC[N+](C)(C)C)C(=O)N[C@H](C(=O)N[C@@H](Cc2ccc(OCCOCCOCC[N+](C)(C)C)cc2)C(=O)N[C@@H](Cc2ccc3ccccc3c2)C(=O)NC2(C(=O)N[C@@H](CCCCN(C)C(C)=O)C(=O)N[C@@H](CC(N)=O)C(=O)N[C@@H](Cc3cccnc3)C(=O)N(C)CC(=O)N(C)C)CCOCC2)C(C)(C)SSC1(C)C` [compound 217, MeCO-Pen(3)-N(N(Me)2)-T-7MeW-K(NMePEG3a)-Pen(3)-APEG3F-2Nal-THP-K(NMeAc)-N-3Pya-Sar-CON(Me)2] (Ac-[Pen]D(NMe2)T[Trp(7-Me)][Lys(Me)](Me3N+(CH2)2O(CH2)2O(CH2)2CO)[Pen]Y(CH2CH2OCH2CH2OCH2CH2NMe3+)[2Nal][Thp][Lys(Me)](Ac)N[3Pal][Sar]-NMe2; disulfide 1-6): 138 A^2. In the case of `CCCCCCCCCCCCCC(=O)N[C@@H](CCC(=O)NCCOCCOCC(=O)NCCOCCOCC(=O)NCCCC[C@@H]1NC(=O)[C@@H](NC(=O)CCOCCOCC[N+](C)(C)C)C(C)(C)SSC(C)(C)[C@@H](C(=O)N[C@@H](Cc2ccc(OCCCCC[N+](C)(C)C)cc2)C(=O)N[C@@H](Cc2ccc3ccccc3c2)C(=O)NC2(C(=O)N[C@@H](CCCCN(C)C(C)=O)C(=O)N[C@@H](CC(N)=O)C(=O)N[C@@H](Cc3cccnc3)C(=O)N(C)[C@@H](CCCCNC(=O)COCCOCCNC(=O)COCCOCCNC(=O)CC[C@H](NC(=O)CCCCCCCCCCCCC)C(=O)O)C(N)=O)CCOCC2)NC(=O)[C@H](CCCCNC(C)=O)NC(=O)[C@H](Cc2c[nH]c3c(C)cccc23)NC(=O)[C@H]([C@@H](C)O)NC1=O)C(=O)O` [compound 357, cPEG3aCO-Pen(3)-K(PEG2PEG2gEC14)-T-7MeW-K(Ac)-Pen(3)-TMAPF-2Nal-THP-K(NMeac)-N-3Pya-NMeK(PEG2PEG2gEC14)-CONH2] ({Me3N+(CH2)2O(CH2)2O(CH2)2CO}-[Pen]K([AEEA-AEEA-γGlu-Myristoyl])T[Trp(7-Me)]K(Ac)[Pen]Y(X3)[2Nal][Thp][Lys(Me)](Ac)N[3Pal][NMeK]([AEEA-AEEA-γGlu-Myristoyl])-NH2; disulfide 1-6), the EPSA worked out at 181 A^2. Then `CC(=O)N(C)CCCC[C@@H]1NC(=O)[C@H](Cc2c[nH]c3c(C)cccc23)NC(=O)[C@H]([C@@H](C)O)NC(=O)[C@H](CCCCNC(=O)CCOCCOCC[N+](C)(C)C)NC(=O)[C@@H](NC(=O)CCOCCOCC[N+](C)(C)C)C(C)(C)SSC(C)(C)[C@@H](C(=O)N[C@@H](Cc2ccc(OCCCCC[N+](C)(C)C)cc2)C(=O)N[C@@H](Cc2ccc3ccccc3c2)C(=O)NC2(C(=O)N[C@@H](CCCCN(C)C(C)=O)C(=O)N[C@@H](CC(N)=O)C(=O)N[C@@H](Cc3cccnc3)C(=O)N(C)CC(=O)N(C)C)CCOCC2)NC1=O` [compound 393, cPEG3aCO-Pen(3)-K(cPEG3a)-T-7MeW-K(NMeAc)-Pen(3)-TMAPF-2Nal-THP-K(NMeAc)-N-3Pya-Sar-CON(Me)2] ({Me3N+(CH2)2O(CH2)2O(CH2)2CO}-[Pen]K(Me3N+(CH2)2O(CH2)2O(CH2)2CO)T[Trp(7-Me)][Lys(Me)](Ac)[Pen]Y(X3)[2Nal][Thp][Lys(Me)](Ac)N[3Pal][Sar]-NMe2; disulfide 1-6), with 144 A^2.
